Source: patent US20100261723A1, “TRISUBSTITUTED PYRIMIDINE DERIVATIVES FOR THE TREATMENT OF PROLIFERATIVE DISEASES” (ASTRAZENECA AB, priority 2007, published 2010)
Values joined by “and” are separate entries in the source; they are usually repeats but may differ in a detail not shown here. Equal values may be shown once. Read-outs that look alike come from different tables or passages of the source.

How the values were obtained:
[1] = target: T1, mTOR kinase (Homo sapiens, UniProt P42345); assay: In vitro mTOR kinase assay, Test (a)(i) (AlphaScreen); format: biochemical
T1 construct: FLAG; made in house
T1 sequence (P42345 1362-2549): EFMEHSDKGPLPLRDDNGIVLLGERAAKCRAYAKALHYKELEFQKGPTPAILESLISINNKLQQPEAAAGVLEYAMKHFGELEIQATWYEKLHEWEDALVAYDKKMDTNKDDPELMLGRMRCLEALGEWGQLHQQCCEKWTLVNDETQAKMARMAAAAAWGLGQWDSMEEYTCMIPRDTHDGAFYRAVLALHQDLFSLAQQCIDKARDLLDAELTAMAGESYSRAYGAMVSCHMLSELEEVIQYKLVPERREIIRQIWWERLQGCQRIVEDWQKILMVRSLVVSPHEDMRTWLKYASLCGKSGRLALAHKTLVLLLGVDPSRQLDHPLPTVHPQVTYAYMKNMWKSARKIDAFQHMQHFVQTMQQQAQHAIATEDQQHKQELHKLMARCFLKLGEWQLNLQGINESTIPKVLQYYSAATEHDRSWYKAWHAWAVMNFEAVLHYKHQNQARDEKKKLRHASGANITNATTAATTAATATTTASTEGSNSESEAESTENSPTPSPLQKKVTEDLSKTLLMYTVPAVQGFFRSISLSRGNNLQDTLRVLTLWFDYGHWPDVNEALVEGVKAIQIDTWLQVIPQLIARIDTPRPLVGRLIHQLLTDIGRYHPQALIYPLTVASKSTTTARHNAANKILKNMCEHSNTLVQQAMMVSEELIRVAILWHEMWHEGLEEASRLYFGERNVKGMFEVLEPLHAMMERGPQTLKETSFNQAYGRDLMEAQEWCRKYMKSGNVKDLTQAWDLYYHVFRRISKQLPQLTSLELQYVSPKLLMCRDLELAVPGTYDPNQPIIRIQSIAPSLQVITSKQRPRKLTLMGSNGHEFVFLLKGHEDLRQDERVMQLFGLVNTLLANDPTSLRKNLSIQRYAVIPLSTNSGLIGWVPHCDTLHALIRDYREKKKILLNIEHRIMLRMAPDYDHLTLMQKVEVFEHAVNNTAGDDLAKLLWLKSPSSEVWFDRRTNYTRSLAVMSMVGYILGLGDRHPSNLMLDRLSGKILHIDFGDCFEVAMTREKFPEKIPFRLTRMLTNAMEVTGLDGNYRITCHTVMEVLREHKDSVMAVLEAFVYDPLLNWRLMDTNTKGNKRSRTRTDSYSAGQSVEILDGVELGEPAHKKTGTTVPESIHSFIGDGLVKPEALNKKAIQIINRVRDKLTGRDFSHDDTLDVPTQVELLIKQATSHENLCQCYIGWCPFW
Procedure: (a)(i) In Vitro mTOR Kinase Assay
A C-terminal truncation of mTOR encompassing amino acid residues 1362 to 2549 of mTOR (EMBL Accession No. L34075) was stably expressed as a FLAG-tagged fusion in HEK293 cells as described by Vilella-Bach et al., […], 1999, 274, 4266-4272. The HEK293 FLAG-tagged mTOR (1362-2549) stable cell line was routinely maintained at 37° C. with 5% CO2 up to a confluency of 70-90% in Dulbecco's modified Eagle's growth medium (DMEM; Invitrogen Limited, Paisley, UK Catalogue No. 41966-029) containing 10% heat-inactivated foetal calf serum (FCS; Sigma, Poole, Dorset, UK, Catalogue No. F0392), 1% L-glutamine (Gibco, Catalogue No. 25030-024) and 2 mg/ml Geneticin (G418 sulfate; Invitrogen Limited, UK Catalogue No. 10131-027). Following expression in the mammalian HEK293 cell line, expressed protein was purified using the FLAG epitope tag using standard purification techniques.
A 30 μl mixture of recombinant purified mTOR enzyme, 1 μM biotinylated peptide substrate (Biotin-Ahx-[…]NH2; Bachem UK Ltd), ATP (20 μM) and a buffer solution [comprising Tris-HCl pH7.4 buffer (50 mM), EGTA (0.1 mM), bovine serum albumin (0.5 mg/mL), DTT (1.25 mM) and manganese chloride (10 mM)] was agitated at room temperature for 90 minutes.
These assay solutions were incubated for 2 hours at room temperature.
Phosphorylated biotinylated peptide is formed in situ as a result of mTOR mediated phosphorylation. The phosphorylated biotinylated peptide that is associated with AlphaScreen Streptavidin donor beads forms a complex with the p70 S6 Kinase (T389) 1A5 Monoclonal Antibody that is associated with Alphascreen Protein A acceptor beads. […] Accordingly, the presence of mTOR kinase activity results in an assay signal. In the presence of an mTOR kinase inhibitor, signal strength is reduced.

[2] = target: T2, p110α Type Ia human PI3K (Homo sapiens, UniProt P42336); assay: In vitro PI3K enzyme assay, Test (b)(i) (AlphaScreen); format: biochemical; settings: individual values, measured twice; read-out: IC50 versus p110α Type Ia human PI3K, Test (b)(i)
T2 construct: full length DNA of each of the p110α, p110β and p110δ Type Ia human PI3K p110 isoforms; 6-His; made in house
T2 sequence (P42336 whole entry, canonical isoform): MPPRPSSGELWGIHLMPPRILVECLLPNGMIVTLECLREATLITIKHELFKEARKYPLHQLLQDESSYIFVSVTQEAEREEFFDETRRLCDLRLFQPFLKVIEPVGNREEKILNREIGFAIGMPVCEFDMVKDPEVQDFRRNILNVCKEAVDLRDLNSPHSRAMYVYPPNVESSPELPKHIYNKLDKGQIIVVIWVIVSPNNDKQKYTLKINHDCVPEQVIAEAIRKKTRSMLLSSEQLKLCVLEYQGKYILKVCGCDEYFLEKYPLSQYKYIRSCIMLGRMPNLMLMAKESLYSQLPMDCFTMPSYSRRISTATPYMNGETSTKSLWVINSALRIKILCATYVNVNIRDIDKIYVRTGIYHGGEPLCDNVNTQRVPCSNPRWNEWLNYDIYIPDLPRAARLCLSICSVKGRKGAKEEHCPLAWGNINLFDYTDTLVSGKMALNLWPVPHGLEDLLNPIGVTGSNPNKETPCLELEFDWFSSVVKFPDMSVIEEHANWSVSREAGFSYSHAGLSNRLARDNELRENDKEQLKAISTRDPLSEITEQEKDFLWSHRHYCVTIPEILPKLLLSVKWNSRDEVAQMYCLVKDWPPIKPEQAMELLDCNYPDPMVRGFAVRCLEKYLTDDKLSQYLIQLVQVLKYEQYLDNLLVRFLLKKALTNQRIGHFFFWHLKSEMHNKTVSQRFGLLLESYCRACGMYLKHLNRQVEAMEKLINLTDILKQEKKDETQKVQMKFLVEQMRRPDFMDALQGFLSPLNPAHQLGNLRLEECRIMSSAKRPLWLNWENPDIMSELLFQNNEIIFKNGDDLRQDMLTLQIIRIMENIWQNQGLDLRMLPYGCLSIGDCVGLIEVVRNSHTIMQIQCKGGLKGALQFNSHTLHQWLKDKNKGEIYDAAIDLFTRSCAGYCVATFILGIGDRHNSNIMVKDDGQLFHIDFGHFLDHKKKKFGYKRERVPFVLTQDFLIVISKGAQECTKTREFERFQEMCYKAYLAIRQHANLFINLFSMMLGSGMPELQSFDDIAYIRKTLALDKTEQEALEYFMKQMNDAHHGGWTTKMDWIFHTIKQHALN
T2 sequence (P27986 whole entry partner, canonical isoform): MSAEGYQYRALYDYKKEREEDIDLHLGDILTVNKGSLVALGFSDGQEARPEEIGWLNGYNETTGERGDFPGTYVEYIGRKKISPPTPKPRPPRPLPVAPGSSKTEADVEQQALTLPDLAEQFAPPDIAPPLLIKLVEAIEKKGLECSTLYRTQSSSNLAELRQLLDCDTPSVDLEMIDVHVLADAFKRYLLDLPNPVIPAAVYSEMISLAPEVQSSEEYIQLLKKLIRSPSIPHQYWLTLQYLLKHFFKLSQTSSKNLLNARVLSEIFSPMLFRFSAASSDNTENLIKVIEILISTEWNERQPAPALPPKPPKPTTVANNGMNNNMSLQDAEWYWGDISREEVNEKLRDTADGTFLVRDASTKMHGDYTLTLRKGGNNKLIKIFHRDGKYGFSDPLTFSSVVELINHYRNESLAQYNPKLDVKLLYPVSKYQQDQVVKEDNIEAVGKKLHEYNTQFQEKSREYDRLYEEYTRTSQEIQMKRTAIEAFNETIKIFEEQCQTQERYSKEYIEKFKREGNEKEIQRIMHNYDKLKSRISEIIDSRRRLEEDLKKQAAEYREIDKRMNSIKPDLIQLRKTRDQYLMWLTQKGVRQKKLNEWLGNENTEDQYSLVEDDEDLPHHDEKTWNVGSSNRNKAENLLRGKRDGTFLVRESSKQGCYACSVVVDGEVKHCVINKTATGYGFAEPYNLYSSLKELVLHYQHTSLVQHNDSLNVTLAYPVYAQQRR
Text: (b)(i) In Vitro PI3K Enzyme Assay

[3] = tested on: Serine 473 in Akt; assay: In vitro phospho-Ser473 Akt assay, Test (c); format: cell-based; settings: MDA-MB-468 human breast adenocarcinoma cells, 2 hours; read-out: IC50 versus Serine 473 in Akt, Test (c)
Procedure: (c) In Vitro Phospho-SeR473 Akt Assay
This assay determines the ability of test compounds to inhibit phosphorylation of Serine 473 in Akt as assessed using Acumen Explorer technology (Acumen Bioscience Limited), a plate reader that can be used to rapidly quantitate features of images generated by laser-scanning.
A MDA-MB-468 human breast adenocarcinoma cell line (LGC Promochem, Teddington, Middlesex, UK, Catalogue No. HTB-132) was routinely maintained at 37° C. with 5% CO2 up to a confluency of 70-90% in DMEM containing 10% heat-inactivated FCS and 1% L-glutamine.
For the assay, the cells were detached from the culture flask using ‘Accutase’ (Innovative Cell Technologies Inc., San Diego, Calif., USA; Catalogue No. AT104) using standard tissue culture methods and resuspended in media to give 1.7×10^5 cells per mL. […]
All subsequent aspiration and wash steps were carried out using a Tecan 96 well plate washer (aspiration speed 10 mm/sec). […] An aliquot of PBS (50 μl) was added to each well and the plates were sealed with black plate sealers and the fluorescence signal was detected and analysed.
Fluorescence dose response data obtained with each compound were analysed and the degree of inhibition of Serine 473 in Akt was expressed as an IC50 value.

[4] = recombinant FLAG-tagged mTOR (1362-2549), ATP 20 μM, read-out: Test (a)(i) IC50

Row | Compound | IC50 [1, 4] [nM] | other results
1 | CN(C)CC(=O)Nc1ccc(-c2nc(CS(C)(=O)=O)cc(N3CCOCC3)n2)cc1 [Example 5p, 2-dimethylamino-N-[4-[4-(methylsulfonylmethyl)-6-morpholin-4-yl-pyrimidin-2-yl]phenyl]acetamide] | 2000 | IC50 ([1]; individual values, measured twice, read-out: IC50 versus mTOR kinase, Test (a)(i)): 2460 nM and 1640 nM; IC50 [2]: 93.3 µM and 51.6 µM; IC50 [3]: 7.77 µM
2 | CS(=O)(=O)Cc1cc(N2CCOCC2)nc(-c2ccc(NC(=O)c3ccno3)cc2)n1 [Example 5v, N-[4-[4-(methylsulfonylmethyl)-6-morpholin-4-yl-pyrimidin-2-yl]phenyl]-1,2-oxazole-5-carboxamide] | 36.9 | 
3 | Cc1ccc(C(=O)Nc2ccc(-c3nc(CS(C)(=O)=O)cc(N4CCOCC4)n3)cc2)cn1 [Example 5w, 6-methyl-N-[4-[4-(methylsulfonylmethyl)-6-morpholin-4-yl-pyrimidin-2-yl]phenyl]pyridine-3-carboxamide] | 8090 | 
4 | CS(=O)(=O)Cc1cc(N2CCOCC2)nc(-c2ccc(NC(=O)c3ccc(C#N)nc3)cc2)n1 [Example 5x, 6-cyano-N-[4-[4-(methylsulfonylmethyl)-6-morpholin-4-yl-pyrimidin-2-yl]phenyl]pyridine-3-carboxamide] | 6200 | 
5 | CS(=O)(=O)Cc1cc(N2CCOCC2)nc(-c2ccc(NC(=O)Cn3ccnc3)cc2)n1 [Example 5y, 2-imidazol-1-yl-N-[4-[4-(methylsulfonylmethyl)-6-morpholin-4-yl-pyrimidin-2-yl]phenyl]acetamide] | 2520 | 
6 | Cc1ccc(C(=O)Nc2ccc(-c3nc(CS(C)(=O)=O)cc(N4CCOCC4)n3)cc2)n1C [Example 5z, 1,5-dimethyl-N-[4-[4-(methylsulfonylmethyl)-6-morpholin-4-yl-pyrimidin-2-yl]phenyl]pyrrole-2-carboxamide] | 9050 | 
7 | C[C@H]1COCCN1c1cc(CS(C)(=O)=O)nc(-c2ccc(N(C)C(=O)c3ccno3)cc2)n1 [Example 7, N-Methyl-N-[4-[4-[(3S)-3-methylmorpholin-4-yl]-6-(methylsulfonylmethyl)pyrimidin-2-yl]phenyl]-1,2-oxazole-5-carboxamide] | 240 | 
8 | C[C@H]1COCCN1c1cc(CS(C)(=O)=O)nc(-c2cccc(NC(=O)c3ccno3)c2)n1 [Example 7a, N-[3-[4-[(3S)-3-methylmorpholin-4-yl]-6-(methylsulfonylmethyl)pyrimidin-2-yl]phenyl]-1,2-oxazole-5-carboxamide] | 1980 | 
